# Source: US20080076711A1, “Therapeutic agents for osteopenia” (Chugai Seiyaku Kabushiki Kaisha, priority 2001, published 2008)
# Test system: wild-type strain 129 female mice
# Assay: BFR and MAR in cortical bone (femoral mid-diaphysis) after PTH treatment, wild-type mice
# Type: in vivo, mouse
# Conditions: WT mice
# Protocol: In the case of cortical bone, decalcified horizontal sections (serial sections of 3 μm thickness) were prepared from the femoral mid-diaphysis and analyzed for BFR and MAR in the periosteal and endosteal regions. More specifically, a calcium chelator calcein (4 mg/kg of body weight) was subcutaneously administered 9 days and 2 days before sampling and the interval between two labeled bands was determined under a fluorescence microscope to calculate BFR and MAR. BFR denotes bone formation rate per unit trabecular area (μm^3/μm^2/day). MAR denotes the rate of increase in the distance between labeled calcified bands (μm/day). Recombinant human PTH(1-34) (Bachem, Torrance, Calif.) was dissolved in acidified physiological saline supplemented with 0.1% bovine serum albumin (Sigma Chemical Co.-Aldrich, St. Louis, Mo.). The OPN-KO mice were subcutaneously administered with 80 μg/kg of body weight human PTH(1-34) for 4 weeks on a five-days-a-week basis. Mice in the control group were administered with physiological saline alone. The effect of PTH on bone metabolism was also examined in the same manner as shown in Example 1, using wild-type strain 129 female mice (7 weeks of age). These mice were divided into groups of 6 mice each.
# [1] = PTH(+) group, 80 μg/kg s.c., 4 weeks
# [2] = PTH(+) vs PTH(−) group, significant inhibition of bone formation (p<0.05)
substance,measurement,setting,value
human PTH(1-34),"endosteal BFR, cortical bone",[1],1.37±0.18 μm^3/μm^2/day
same,"endosteal MAR, cortical bone",[1],2.44±0.29 μm/day
same,"periosteal BFR, cortical bone",[1],1.07±0.08 μm^3/μ^2/day
same,"periosteal MAR, cortical bone",[1],2.05±0.21 μm/day
same,fold increase in endosteal BFR by PTH treatment,"PTH(+) vs PTH(−) group, p<0.05",about 1.8 fold
same,fold increase in endosteal MAR by PTH treatment,"PTH(+) vs PTH(−) group, p<0.05",~1.5 fold
same,fold increase in periosteal BFR by PTH treatment,[2],~0.6 fold
same,fold increase in periosteal MAR by PTH treatment,[2],~0.7 fold
